Reference: patent publication US9868698B2, “(2S,4R)-5-(5′-chloro-2′-fluorobiphenyl-4-yl)-4-(ethoxyoxalylamino)-2-hydroxymethyl-2-methylpentanoic acid” (THERAVANCE BIOPHARMA R&D IP, LLC, priority 2015, dated 2018)

Legend:
[1] = IV/PO pharmacokinetic study in rats (Assay 3); format: in vivo; conditions: male, Sprague-Dawley, plasma, rat, read-out: AUClast Mean
Description: (§1) Each rat or dog pharmacokinetic study began with formulation of the test compound. Appropriate masses of each test compound were added into a volume of vehicle (e.g. 5% sodium bicarbonate, 5% dextrose in water) such that the final concentration of each compound was appropriate to be dosed at 2 mL/kg. Although a homogenous suspension were acceptable for oral dosing, intravenous dosing solutions were sterile-filtered (0.2 μm) prior to dosing to ensure no particulates were administered.
In the rat study, pre-cannulated male Sprague-Dawley rats (3 per route) between 8 and 10 weeks of age were obtained from Harlan Laboratories (Indianapolis, Ind.). Rats received either a single oral gavage or a single intravenous (via lateral tail vein) dose of the dosing solution. The final dose was typically 0.5-3 mg/kg. Serial blood samples were harvested via the cannula implanted in the jugular vein at 3 minutes, 15 minutes, 30 minutes, 1 hour, 2 hours, 4 hours, 6 hours, and 24 hours post-dose. Sampling was performed either manually or using automated blood samplers. Samples were collected into microtainer tubes containing sodium fluoride, potassium oxalate and paraoxon, and were processed to plasma by refrigerated centrifugation.
(§2) Plasma samples were extracted with 3 volumes of MeCN containing a suitable internal standard. Extracts were reconstituted into 3 volumes of water containing 1% formic acid, and analyzed via HPLC-coupled MS/MS. Plasma concentration-time data were analyzed using the Phoenix software (Pharsight Corp., St. Louis, Mo.) to calculate pharmacokinetic parameters.

Rat NEP = molecular target: T1, Rat NEP (Rattus norvegicus, UniProt P07861); test: In vitro enzyme inhibition assay, rat NEP (Assay 1); format: biochemical; conditions: NEP from rat kidneys; read-out: rat pKi (converted)
T1 construct: leaving a viscous oily precipitate containing the enriched membrane fraction; from tissue; host or cells: kidneys of adult Sprague Dawley rats (Triton X-114 enriched membrane fraction)
T1 sequence (P07861 1-750): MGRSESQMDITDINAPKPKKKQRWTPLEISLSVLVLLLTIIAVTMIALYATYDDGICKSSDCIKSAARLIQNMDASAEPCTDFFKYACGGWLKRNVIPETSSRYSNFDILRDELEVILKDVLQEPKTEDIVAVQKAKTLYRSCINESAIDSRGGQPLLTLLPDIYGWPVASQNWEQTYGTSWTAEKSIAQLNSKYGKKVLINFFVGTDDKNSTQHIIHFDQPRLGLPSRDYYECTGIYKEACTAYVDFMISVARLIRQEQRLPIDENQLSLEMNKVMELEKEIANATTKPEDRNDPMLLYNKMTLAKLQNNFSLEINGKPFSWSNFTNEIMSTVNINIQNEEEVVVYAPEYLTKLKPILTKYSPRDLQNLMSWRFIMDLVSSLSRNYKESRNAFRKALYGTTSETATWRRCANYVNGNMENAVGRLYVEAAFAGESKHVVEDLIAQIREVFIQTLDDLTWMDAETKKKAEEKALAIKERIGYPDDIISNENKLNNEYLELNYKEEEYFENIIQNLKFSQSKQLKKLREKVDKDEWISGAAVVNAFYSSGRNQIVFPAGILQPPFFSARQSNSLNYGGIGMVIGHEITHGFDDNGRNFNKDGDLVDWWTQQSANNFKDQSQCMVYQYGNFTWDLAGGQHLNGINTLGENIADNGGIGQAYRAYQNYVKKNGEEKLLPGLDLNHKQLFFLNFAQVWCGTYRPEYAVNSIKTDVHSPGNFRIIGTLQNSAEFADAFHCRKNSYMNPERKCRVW
Description: (§3) The inhibitory activities at human and rat neprilysin (EC 3.4.24.11; NEP) were determined using in vitro assays as described below.
Rat NEP was prepared from the kidneys of adult Sprague Dawley rats. Whole kidneys were washed in cold phosphate buffered saline (PBS) and brought up in ice-cold lysis buffer (1% Triton X-114, 150 mM NaCl, 50 mM tris(hydroxymethyl) aminomethane (Tris) pH 7.5; Bordier (1981) J. Biol. Chem. 256: 1604-1607) in a ratio of 5 mL of buffer for every gram of kidney. Samples were homogenized on ice using a polytron hand held tissue grinder. Homogenates were centrifuged at 1000×g in a swinging bucket rotor for 5 minutes at 3° C. The pellet was resuspended in 20 mL of ice cold lysis buffer and incubated on ice for 30 minutes. Samples (15-20 mL) were then layered onto 25 mL of ice-cold cushion buffer (6% w/v sucrose, 50 mM pH 7.5 Tris, 150 mM NaCl, 0.06%, Triton X-114), heated to 37° C. for 3-5 minutes and centrifuged at 1000×g in a swinging bucket rotor at room temperature for 3 minutes. The two upper layers were aspirated off, leaving a viscous oily precipitate containing the enriched membrane fraction. Glycerol was added to a concentration of 50% and samples were stored at −20° C. Protein concentrations were quantitated using a BCA detection system with bovine serum albumin (BSA) as a standard.
(§4) The assays were performed in 384-well white opaque plates at 37° C. using the fluorogenic peptide substrate at a concentration of 10 μM in Assay Buffer (50 mM HEPES, pH 7.5, 100 mM NaCl, 0.01% polyethylene glycol sorbitan monolaurate (Tween-20), 10 μM ZnSO4).
(§5) Test compounds were assayed over the range of concentrations from 10 μM to 20 pM. Test compounds were added to the enzyme and incubated for 30 minute at 37° C. prior to initiating the reaction by the addition of substrate. Reactions were terminated after 20 minutes of incubation at 37° C. by the addition of glacial acetic acid to a final concentration of 3.6% (v/v).
(§6) Plates were read on a fluorometer with excitation and emission wavelengths set to 320 nm and 405 nm, respectively. Inhibition constants were obtained by nonlinear regression of the data using the equation (GraphPad Software, Inc., San Diego, Calif.): v=v0/[1+(I/K′)] where v is the reaction rate, v0 is the uninhibited reaction rate, I is the inhibitor concentration and K′ is the apparent inhibition constant.

NEP = NEP (Homo sapiens, UniProt P08473); test: In vitro enzyme inhibition assay, human NEP (Assay 1); format: biochemical; parameters: purchased R&D Systems 1182-ZN; conditions: read-out: human pKi (converted)
Description: as §3
Recombinant human NEP was obtained commercially (R&D Systems, Minneapolis, Minn., catalog number 1182-ZN). The fluorogenic peptide substrate Mca-D-Arg-Arg-Leu-Dap-(Dnp)-OH (Medeiros et al. (1997) Braz. J. Med. Biol. Res. 30:1157-62; Anaspec, San Jose, Calif.) was used.
as §4, §5, §6

[2] = IV/PO pharmacokinetic study in dogs (Assay 3); format: in vivo; conditions: male, beagle, plasma, dog, read-out: AUClast Mean
Description: as §1
In the dog study, male beagle dogs (3 per route) housed at Agilux Laboratories (Worcester, Mass.) and weighing between 7-12 kg received either a single oral gavage or a single intravenous (via indwelling catheter) dose of the dosing solution. The final dose was typically 0.1-2 mg/kg. Serial blood samples were harvested via direct venipuncture at 3 minutes, 15 minutes, 30 minutes, 1 hour, 2 hours, 4 hours, 6 hours, 8 hours, 12 hours, and 24 hours post-dose. All samples were collected manually into microtainer tubes containing sodium fluoride, potassium oxalate and paraoxon, and were processed to plasma by refrigerated centrifugation.
as §2

[3] = Dynamic moisture sorption assessment; format: physicochemical
Description: In one embodiment, crystalline form 1′ is characterized by the DMS isotherm in FIG. 4. This form is a non-hygroscopic solid. The total moisture gain observed is less than 1% by weight when exposed to between 5% and 90% relative humidity. No significant hysteresis is found between consecutive sorption-desorption cycles.
DMS measurements were performed using a VTI atmospheric microbalance, SGA-100 system (VTI Corp., Hialeah, Fla. 33016). A weighed sample was used and the humidity was lowest possible value (close to 0% relative humidity) at the start of the analysis. The DMS analysis consisted of a scan rate of 5% relative humidity/step over the full humidity range of 5-90%. The DMS run was performed isothermally at 25° C.

[4] = Accelerated stability study of calcium salt crystals (Example 7); format: physicochemical
Text: One challenge in pharmaceutical drug development relates to discovering a stable, crystalline form of a drug having a reasonably high melting point. The challenge of the present invention was that crystals of the free acid of Compound 1 could not be obtained. Furthermore, many crystal screens failed, with the exception of two-arginine and calcium crystals of (2S,4R)-5-(5′-chloro-2′-fluorobiphenyl-4-yl)-4-(ethoxyoxalylamino)-2-hydroxymethyl-2-methylpentanoic acid were obtained. However, the arginine crystals (see Example 1) were deliquescent at ambient conditions and were difficult to develop further. On the other hand, the calcium crystals were stable and melted around 239° C. For that reason, an accelerated stability study of Compound 1′ was conducted at the temperatures and % relative humidity (RH) reported below.

[5] = PO, analyte = compound dosed (prodrug)
[6] = IV, analyte = compound dosed (active metabolite)

Sequence of NEP (P08473 52-750 limits assumed): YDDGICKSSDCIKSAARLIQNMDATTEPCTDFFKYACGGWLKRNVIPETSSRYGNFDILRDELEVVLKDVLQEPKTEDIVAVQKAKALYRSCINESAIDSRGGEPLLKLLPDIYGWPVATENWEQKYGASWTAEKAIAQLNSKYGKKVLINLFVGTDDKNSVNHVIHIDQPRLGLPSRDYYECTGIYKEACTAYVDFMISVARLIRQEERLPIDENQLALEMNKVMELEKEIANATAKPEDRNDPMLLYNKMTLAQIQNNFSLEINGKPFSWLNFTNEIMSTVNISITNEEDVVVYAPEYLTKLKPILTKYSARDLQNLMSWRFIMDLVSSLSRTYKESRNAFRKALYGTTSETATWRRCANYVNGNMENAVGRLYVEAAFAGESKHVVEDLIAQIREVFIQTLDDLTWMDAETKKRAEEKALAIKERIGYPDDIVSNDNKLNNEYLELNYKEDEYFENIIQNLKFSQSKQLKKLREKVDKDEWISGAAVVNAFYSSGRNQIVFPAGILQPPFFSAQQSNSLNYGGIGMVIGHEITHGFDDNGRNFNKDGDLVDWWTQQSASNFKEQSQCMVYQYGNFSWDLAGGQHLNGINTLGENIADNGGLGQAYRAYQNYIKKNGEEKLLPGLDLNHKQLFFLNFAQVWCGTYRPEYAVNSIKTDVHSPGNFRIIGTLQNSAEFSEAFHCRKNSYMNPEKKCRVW

## CCOC(=O)[C@](C)(CO)C[C@@H](Cc1ccc(-c2cc(Cl)ccc2F)cc1)NC(=O)C(=O)O [Comparison Compound C3, (2S,4R)-5-(5′-Chloro-2′-fluorobiphenyl-4-yl)-2-hydroxymethyl-2-methyl-4-(oxalylamino)pentanoic Acid Ethyl Ester]
[1]; [5]
  AUC(0-t): 560 ng·h/mL
Rat NEP
  Ki: 2000 nM
NEP
  Ki: 3980 nM
[2]; [5]
  AUC(0-t): 950 ng·h/mL

## CCOC(=O)[C@H](O)C[C@@H](Cc1ccc(-c2cc(Cl)ccc2F)cc1)NC(=O)C(=O)O [Comparison Compound C4, (2R,4R)-5-(5′-Chloro-2′-fluorobiphenyl-4-yl)-2-hydroxy-4-(oxalylamino)pentanoic Acid Ethyl Ester]
[1]; [5]
  AUC(0-t): 40 ng·h/mL
Rat NEP
  Ki: 7.94 nM
NEP
  Ki: 15.8 nM
[2]; [5]
  AUC(0-t): 480 ng·h/mL

## CCOC(=O)C(=O)N[C@H](Cc1ccc(-c2cc(Cl)ccc2F)cc1)C[C@@H](O)C(=O)O [Comparison Compound C5, (2R,4R)-5-(5′-Chloro-T-fluorobiphenyl-4-yl)-4-(ethoxyoxalylamino)-2-hydroxypentanoic Acid]
Rat NEP
  Ki: 0.2 nM
NEP
  Ki: 0.2 nM
[2]; [5]
  AUC(0-t): 29 ng·h/mL

## O=C(O)C(=O)N[C@H](Cc1ccc(-c2cc(Cl)ccc2F)cc1)C[C@@H](O)C(=O)O [Comparison Compound C6, (2R,4R)-5-(5′-Chloro-T-fluorobiphenyl-4-yl)-2-hydroxy-4-(oxalylamino)pentanoic Acid]
[1]; [6]
  AUC(0-t): 15000 ng·h/mL
Rat NEP
  Ki: 0.158 nM
NEP
  Ki: 0.2 nM
[2]; [6]
  AUC(0-t): 1280 ng·h/mL

## CCOC(=O)C(=O)N[C@H](Cc1ccc(-c2cc(Cl)ccc2F)cc1)C[C@@](C)(CO)C(=O)O [Compound 1′, Calcium (2S,4R)-5-(5′-Chloro-2′-fluoro-[1,1′-biphenyl]-4-yl)-4-(2-ethoxy-2-oxoacetamido)-2-(hydroxymethyl)-2-methylpentanoate]
[3]; DMS isotherm
  hygroscopicity (in words): non-hygroscopic
[3]; between 5% and 90% relative humidity, 25° C.
  total moisture gain: less than 1 % by weight
[4]; 5° C., 0 months
  Assay: 95.0 % (w/w)
  Purity: 97.3 % (a/a)
[4]; 5° C., 2 months
  Assay: 93.4 % (w/w)
  Purity: 97.6 % (a/a)
[4]; 5° C., 3 months
  Assay: 92.4 % (w/w)
  Purity: 97.5 % (a/a)
[4]; 25° C., 60% RH, 0 months
  Assay: 95.0 % (w/w)
  Purity: 97.3 % (a/a)
[4]; 25° C., 60% RH, 2 months
  Assay: 94.4 % (w/w)
  Purity: 97.3 % (a/a)
[4]; 25° C., 60% RH, 3 months
  Assay: 92.9 % (w/w)
  Purity: 96.8 % (a/a)
[4]; 40° C., 75% RH, 0 months
  Assay: 95.0 % (w/w)
  Purity: 97.3 % (a/a)
[4]; 40° C., 75% RH, 1 month
  Assay: 95.5 % (w/w)
  Purity: 95.9 % (a/a)
[4]; 40° C., 75% RH, 2 months
  Assay: 92.1 % (w/w)
  Purity: 95.3 % (a/a)
[4]; 40° C., 75% RH, 3 months
  Assay: 92.1 % (w/w)
  Purity: 93.9 % (a/a)
[4]; up to at least three months at the temperatures and relative humidity tested
  stability (in words): relatively stable
